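Results reflect a 48-hour exposure of cells in 96-well plates to compound at five concentrations. GI50 is the concentration that inhibits growth by half.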 Active and inactive are the calls of the source. Rule as the data show it: active = GI50 up to about 1.1 µM and inactive = higher.
How the values were obtained:
Experiment in all cases: NCI anticancer screen, dose series, 48 h
IGROV-1 = tested on: IGROV-1
HCT-116 = tested on: HCT-116
COLO 205 = tested on: COLO 205
RXF 393 = tested on: RXF 393
T47D = tested on: T47D
Hs-578T = tested on: Hs-578T
OVCAR-3 = tested on: OVCAR-3
EKVX = tested on: EKVX
M14 = tested on: M14
SW-620 = tested on: SW-620
LOX IMVI = tested on: LOX IMVI
CCRF-CEM = tested on: CCRF-CEM
SF-539 = tested on: SF-539
PC-3 = tested on: PC-3
NCI-H23 = tested on: NCI-H23
MDA-MB-231 = tested on: MDA-MB-231
ACHN = tested on: ACHN
HOP-62 = tested on: HOP-62
A549 = tested on: A549
SF-268 = tested on: SF-268
UO-31 = tested on: UO-31
SN12C = tested on: SN12C
A498 = tested on: A498
SK-OV-3 = tested on: SK-OV-3
TK-10 = tested on: TK-10
HT-29 = tested on: HT-29
UACC-62 = tested on: UACC-62
U-251 = tested on: U-251
MOLT-4 = tested on: MOLT-4
CAKI-1 = tested on: CAKI-1
DU-145 = tested on: DU-145
SK-MEL-28 = tested on: SK-MEL-28
SR = tested on: SR
SNB-19 = tested on: SNB-19
OVCAR-5 = tested on: OVCAR-5
SK-MEL-2 = tested on: SK-MEL-2
HL-60 = tested on: HL-60
NCI-H522 = tested on: NCI-H522
MCF7 = tested on: MCF7
MDA-MB-435 = tested on: MDA-MB-435
HOP-92 = tested on: HOP-92
KM12 = tested on: KM12
HCC 2998 = tested on: HCC 2998
HCT-15 = tested on: HCT-15
SK-MEL-5 = tested on: SK-MEL-5
BT-549 = tested on: BT-549
NCI/ADR-RES = tested on: NCI/ADR-RES
NCI-H226 = tested on: NCI-H226
NCI-H460 = tested on: NCI-H460
OVCAR-4 = tested on: OVCAR-4
Malme-3M = tested on: Malme-3M
SF-295 = tested on: SF-295
OVCAR-8 = tested on: OVCAR-8
MDA-N = tested on: MDA-N
UACC-257 = tested on: UACC-257
786-0 = tested on: 786-0
RPMI-8226 = tested on: RPMI-8226
K562 = tested on: K562
SNB-75 = tested on: SNB-75

Q: What does the source list for `C=C1CC(OC(C)=O)/C=C(/C)CCC(C(C)(C)O)CC1O` (centres undefined)?
A: GI50 (IGROV-1): > 100 µM (inactive); GI50 (HCT-116): > 100 µM (inactive); GI50 (COLO 205): > 100 µM (inactive); GI50 (RXF 393): > 100 µM (inactive); GI50 (T47D): > 100 µM (inactive); GI50 (Hs-578T): > 100 µM (inactive); GI50 (OVCAR-3): > 100 µM (inactive); GI50 (EKVX): > 100 µM (inactive); GI50 (M14): > 100 µM (inactive); GI50 (SW-620): > 100 µM (inactive); GI50 (LOX IMVI): > 100 µM (inactive); GI50 (CCRF-CEM): > 100 µM (inactive); GI50 (SF-539): > 100 µM (inactive); GI50 (PC-3): > 100 µM (inactive); GI50 (NCI-H23): > 100 µM (inactive); GI50 (MDA-MB-231): > 100 µM (inactive); GI50 (ACHN): > 100 µM (inactive); GI50 (HOP-62): > 100 µM (inactive); GI50 (A549): > 100 µM (inactive); GI50 (SF-268): > 100 µM (inactive); GI50 (UO-31): > 100 µM (inactive); GI50 (SN12C): > 100 µM (inactive); GI50 (A498): > 100 µM (inactive); GI50 (SK-OV-3): > 100 µM (inactive); GI50 (TK-10): > 100 µM (inactive); GI50 (HT-29): > 100 µM (inactive); GI50 (UACC-62): > 100 µM (inactive); GI50 (U-251): > 100 µM (inactive); GI50 (MOLT-4): > 100 µM (inactive); GI50 (CAKI-1): > 100 µM (inactive); GI50 (DU-145): > 100 µM (inactive); GI50 (SK-MEL-28): > 100 µM (inactive); GI50 (SR): > 100 µM (inactive); GI50 (SNB-19): > 100 µM (inactive); GI50 (OVCAR-5): > 100 µM (inactive); GI50 (SK-MEL-2): > 100 µM (inactive); GI50 (HL-60): > 100 µM (inactive); GI50 (NCI-H522): > 100 µM (inactive); GI50 (MCF7): > 100 µM (inactive); GI50 (MDA-MB-435): > 100 µM (inactive); GI50 (HOP-92): > 100 µM (inactive); GI50 (KM12): > 100 µM (inactive); GI50 (HCC 2998): > 100 µM (inactive); GI50 (HCT-15): > 100 µM; GI50 (SK-MEL-5): > 100 µM (inactive); GI50 (BT-549): > 100 µM (inactive); GI50 (NCI/ADR-RES): > 100 µM (inactive); GI50 (NCI-H226): > 100 µM (inactive); GI50 (NCI-H460): > 100 µM (inactive); GI50 (OVCAR-4): > 100 µM (inactive); GI50 (Malme-3M): > 100 µM (inactive); GI50 (SF-295): > 100 µM (inactive); GI50 (OVCAR-8): > 100 µM (inactive); GI50 (MDA-N): > 100 µM (inactive); GI50 (UACC-257): > 100 µM (inactive); GI50 (786-0): > 100 µM (inactive)

Q: Which results are given for `CCOC(=O)c1sc2nc(SC)nc3c2c1N=CN3c1ccccc1Cl`?
A: GI50 (IGROV-1): 68.1 µM (inactive); GI50 (HCT-116): 40.9 µM (inactive); GI50 (COLO 205): > 100 µM (inactive); GI50 (RXF 393): 18.1 µM (inactive); GI50 (T47D): 58.5 µM (inactive); GI50 (Hs-578T): 5.58 µM (inactive); GI50 (OVCAR-3): 32.6 µM (inactive); GI50 (EKVX): 55.3 µM (inactive); GI50 (M14): 62.1 µM (inactive); GI50 (SW-620): > 100 µM (inactive); GI50 (LOX IMVI): > 100 µM (inactive); GI50 (CCRF-CEM): 65.3 µM (inactive); GI50 (RPMI-8226): > 100 µM (inactive); GI50 (PC-3): > 100 µM (inactive); GI50 (NCI-H23): 92.3 µM (inactive); GI50 (MDA-MB-231): 30.9 µM (inactive); GI50 (ACHN): 19.4 µM (inactive); GI50 (HOP-62): 6.98 µM (inactive); GI50 (A549): 71.3 µM (inactive); GI50 (SF-268): 24.1 µM (inactive); GI50 (UO-31): > 100 µM (inactive); GI50 (K562): 72.3 µM (inactive); GI50 (SN12C): > 100 µM (inactive); GI50 (A498): 10.1 µM (inactive); GI50 (SK-OV-3): 31.4 µM (inactive); GI50 (TK-10): > 100 µM (inactive); GI50 (HT-29): > 100 µM (inactive); GI50 (UACC-62): 33 µM (inactive); GI50 (U-251): 21.3 µM (inactive); GI50 (MOLT-4): 61.7 µM (inactive); GI50 (CAKI-1): 26.2 µM (inactive); GI50 (DU-145): > 100 µM (inactive); GI50 (SK-MEL-28): > 100 µM (inactive); GI50 (SR): 26.9 µM (inactive); GI50 (SNB-19): 29.4 µM (inactive); GI50 (OVCAR-5): > 100 µM (inactive); GI50 (SNB-75): 14.4 µM (inactive); GI50 (SK-MEL-2): 49.2 µM (inactive); GI50 (HL-60): 79.8 µM (inactive); GI50 (NCI-H522): 20.5 µM (inactive); GI50 (MCF7): > 100 µM (inactive); GI50 (MDA-MB-435): > 100 µM (inactive); GI50 (HOP-92): 22.6 µM (inactive); GI50 (KM12): > 100 µM (inactive); GI50 (HCC 2998): > 100 µM (inactive); GI50 (HCT-15): > 100 µM; GI50 (SK-MEL-5): 52 µM (inactive); GI50 (BT-549): 26.7 µM (inactive); GI50 (NCI/ADR-RES): > 100 µM (inactive); GI50 (NCI-H226): > 100 µM (inactive); GI50 (NCI-H460): > 100 µM (inactive); GI50 (OVCAR-4): 17.2 µM (inactive); GI50 (Malme-3M): 35 µM (inactive); GI50 (SF-295): 32.7 µM (inactive); GI50 (OVCAR-8): 52.6 µM (inactive); GI50 (MDA-N): > 100 µM (inactive); GI50 (UACC-257): > 100 µM (inactive); GI50 (786-0): 14.1 µM (inactive)
